Values of other authors in patent US20130023590A1, “AQUEOUS COMPOSITIONS COMPRISING RESVERATROL AND METHODS FOR MAKING THEM” (priority 2011, published 2013).
Read-outs that look alike come from different tables or passages of the source.

How the values were obtained:
yeast = settings: in the absence of caloric restriction
[1] = for solubility in water: with heating
[2] = oral, humans

solubility in organic solvents ([1]; ethanol, dimethyl sulfoxide or dimethyl formamide): approximately 65 mg/ml
solubility in water ([1]; Sigma-Aldrich Product Information Sheet): 3 mg/100 ml
solubility in water ([1]; same value restated in ppm): 30 ppm
bioavailability [2]: very low
SMILES: Oc1ccc(C=Cc2cc(O)cc(O)c2)cc1 [resveratrol, 3,4′,5-trihydroxystilbene]
extension of replicative lifespan of yeast (yeast): 70%
